Source: patent US11117898B2, “Pyrazolo-heteroaryl derivative, preparation method and medical use thereof” (Jiangsu Hengrui Medicine Co., Ltd., priority 2016, dated 2021)

These molecules were tested on PBMC (assay: Stimulation of the secretion of IFN-α from peripheral blood mononuclear cells (PBMC)). Settings: minimal effective concentration: lowest concentration giving cytokine level at least 3 times the minimum detection limit; 24 hours incubation.
Assay type: cell-based, human
Description: The ability of the compounds of the present invention to stimulate the secretion of IFN-α from PBMC was determined by the following experimental method:
The compound was diluted with pure DMSO to a maximum concentration of 5 mM, and a total of 9 points were obtained by a 4-fold gradient dilution. 4 μl of the compound were then added to 196 μl of RMPI 1640 medium containing 10% FBS and mixed well. 50 μl of the mixture were taken from each well and added to a new 96-well plate.
All reagents were equilibrated to room temperature. 60 ml of blood and PBS+2% FBS were added to a 250 ml culture flask, gently pipetted, mixed well and diluted. 15 ml of lymphocyte separation solution Ficoll-Paque PREMIUM and then 30 ml of diluted blood were added to a 50 ml PBMC centrifuge tube SepMate™-50. The mixture was centrifuged at 1200 g for 10 minutes at room temperature. The supernatant was taken and then centrifuged at 300 g for 8 minutes. The cells were re-suspended in the RMPI 1640 medium containing 10% FBS and counted, and the number of PBMCs was adjusted to 3.33×10^6 cells/ml. 150 μl of the cell solution were added to the plate added with the compound, and incubated in an incubator at 37° C., in 5.0% CO2 for 24 hours.
The cell culture plate was placed in a centrifuge, and centrifuged at 1200 rpm for 10 minutes at room temperature. 150 μl of the supernatant were taken from each well. The reagents in the human IFN-α kit were first equilibrated to normal temperature. The anti-IFN-α-Eu^3+-Cryptate conjugate and the anti-IFN-α-d2-conjugate were formulated in the dark according to the kit instructions, and both of them were mixed well with the conjugate buffer at a ratio of 1:40. 16 μl of the supernatant obtained by centrifugation were then added to each well. 2 μl of anti-IFN-α-Eu^3+-Cryptate conjugate and anti-IFN-α-d2-conjugate formulated just now were then added to each well. The plate was shaken and mixed well, and incubated in the dark at room temperature for 3 hours.
The PHERAStar was read in the HTRF mode. The lowest compound concentration that stimulated cytokine levels of at least 3 times higher than the minimum detection limit was defined as the minimal effective concentration (MEC) value of the compound in the cytokine stimulation test.
The ability of the compounds of the present invention to stimulate the secretion of IFN-α from PBMC was determined by the above test, and the obtained MEC values are shown in Table 3.

Compound	MEC to stimulate the secretion of IFN-α from PBMC
CCCCOc1nc(N)c2cnn(Cc3ccc(CN4CCCCC4)cc3)c2n1 [Example 3, 6-Butoxy-1-(4-(piperidin-1-ylmethyl)benzyl)-1H-pyrazolo[3,4-d]pyrimidin-4-amine]	20 nM
COCCOc1nc(N)c2cnn(Cc3ccc(CN4CCCC4)cc3)c2n1 [Example 7, 6-(2-Methoxyethoxy)-1-(4-(pyrrolidin-1-ylmethyl)benzyl)-1H-pyrazolo[3,4-d]pyrimidin-4-amine]	89 nM
CCCCOc1nc(N)c2cnn(Cc3ccc(CN4CCC4)cc3)c2n1 [Example 2, 1-(4-(Azetidin-1-ylmethyl)benzyl)-6-butoxy-1H-pyrazolo[3,4-d]pyrimidin-4-amine]	23 nM
CCCCOc1nc(N)c2cnn(Cc3cccc(CN4CCCC4)c3)c2n1 [Example 4, 6-Butoxy-1-(3-(pyrrolidin-1-ylmethyl)benzyl)-1H-pyrazolo[3,4-d]pyrimidin-4-amine]	100 nM
